Among the data in patent US20170354639A1, “DITERPENOID DERIVATIVES AND METHODS OF USE THEREOF” (Biogen MA Inc., priority 2014, published 2017) are EC50 values, retold here.

As a reminder, the EC50 is the concentration needed to bring the measured effect to its halfway point.

The target of the test is Nrf2-Keap1 (Homo sapiens, UniProt Q14145). The test can be described thus: DiscoveRx PathHunter Nrf2-Keap1 nuclear translocation functional assay (agonist format). The format is cell-based. Particulars: 10 concentrations, 3-fold serial dilutions, 30 μM top concentration, in duplicate; agonist mode; normalized to CDDO methyl ester and vehicle.
Chain of Nrf2-Keap1 (Q14145 whole entry): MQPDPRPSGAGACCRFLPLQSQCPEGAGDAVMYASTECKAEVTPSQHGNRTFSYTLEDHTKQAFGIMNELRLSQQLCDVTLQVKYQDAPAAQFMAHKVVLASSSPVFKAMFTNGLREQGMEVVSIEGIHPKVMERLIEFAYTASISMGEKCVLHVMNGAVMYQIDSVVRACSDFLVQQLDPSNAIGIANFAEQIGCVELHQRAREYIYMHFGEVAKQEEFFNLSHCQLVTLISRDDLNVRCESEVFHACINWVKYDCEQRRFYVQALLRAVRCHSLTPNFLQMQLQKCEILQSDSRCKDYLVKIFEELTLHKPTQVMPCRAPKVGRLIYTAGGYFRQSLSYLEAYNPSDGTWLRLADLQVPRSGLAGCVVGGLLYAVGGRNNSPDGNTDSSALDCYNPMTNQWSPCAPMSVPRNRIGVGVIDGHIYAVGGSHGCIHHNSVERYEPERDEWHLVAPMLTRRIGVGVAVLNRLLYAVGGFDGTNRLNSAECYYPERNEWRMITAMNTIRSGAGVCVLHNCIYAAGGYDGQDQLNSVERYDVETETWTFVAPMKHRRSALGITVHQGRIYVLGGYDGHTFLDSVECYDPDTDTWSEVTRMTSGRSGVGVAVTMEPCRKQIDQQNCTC
Consider `C=C1CC[C@@H]2[C@@H](C)[C@@](O)(C(F)(F)F)CC[C@@]2(C)[C@@H]1C/C=C1/C(=O)OC[C@H]1O` [Example 42B, (S,E)-4-hydroxy-3-(2-((1R,4aR,5R,6R,8aR)-6-hydroxy-5,8a-dimethyl-2-methylene-6-(trifluoromethyl)decahydronaphthalen-1-yl)ethylidene)dihydrofuran-2(3H)-one], for which the EC50 was under 500 nM. With `CC1=CC[C@@H]2[C@@H](C)[C@](O)(C(F)(F)F)CC[C@@]2(C)[C@@H]1C/C=C1/C(=O)OC[C@H]1O` [Example 47, (S,E)-4-hydroxy-3-(2-((1R,4aR,5R,6S,8aR)-6-hydroxy-2,5,8a-trimethyl-6-(trifluoromethyl)-1,4,4a,5,6,7,8,8a-octahydronaphthalen-1-yl)ethylidene)dihydrofuran-2(3H)-one], the EC50 is over 2000 nM. The same measure for `CC1=CC[C@@H]2[C@@H](C)[C@@](O)(C(F)(F)F)CC[C@@]2(C)[C@@H]1C/C=C1/C(=O)OC[C@H]1O` [Example 48, (S,E)-4-hydroxy-3-(2-((1R,4aR,5R,6R,8aR)-6-hydroxy-2,5,8a-trimethyl-6-(trifluoromethyl)-1,4,4a,5,6,7,8,8a-octahydronaphthalen-1-yl)ethylidene)dihydrofuran-2(3H)-one]: over 2000 nM.
